We go through 11 molecules from patent publication US10626112B2, “Heterocyclic sulfonamide derivative and medicine comprising same” (EA PHARMA CO., LTD., priority 2014, dated 2020).

Each structure is given as a SMILES string.

The assay deals with human TRPA1 (Homo sapiens (Human), UniProt O75762). The assay is described as follows: Measurement of TRPA1 antagonist activity (2): as (1), different lot of human TRPA1 expression plasmid. Format: cell-based. Particulars: 293T cells transfected with human TRPA1, allylisothiocyanate 20 μM stimulation, calcium fluorescence, read-out: hTRPA1 IC50. On the procedure: Human embryonic kidney-derived 293T cells were cultured in Dulbecco's Modified Eagle Medium containing 10% fetal bovine serum, 10 unit penicillin, and 10 μg streptomycin, plated on a petri dish having a diameter of 10 cm at 3×10^6 cells, and cultured for 24 hr in a CO2 incubator. A reduced serum medium (manufactured by Invitrogen, trade name: OPTI-MEM, 600 μL), a gene transfer reagent (manufactured by Mirus Bio, trade name: Mirus TransIT-293, 18 μL), and human TRPA1 expression plasmid (6 μg) were mixed, the total amount of the mixture was added to the cells on the petri dish to allow for gene transfer. The cells were recovered about for 8 hr later, plated on a poly-D-lysine coated 384 well black/clear bottom plate at 12,000 cells/well, and cultured overnight.
human TRPA1, sequence (O75762 whole entry): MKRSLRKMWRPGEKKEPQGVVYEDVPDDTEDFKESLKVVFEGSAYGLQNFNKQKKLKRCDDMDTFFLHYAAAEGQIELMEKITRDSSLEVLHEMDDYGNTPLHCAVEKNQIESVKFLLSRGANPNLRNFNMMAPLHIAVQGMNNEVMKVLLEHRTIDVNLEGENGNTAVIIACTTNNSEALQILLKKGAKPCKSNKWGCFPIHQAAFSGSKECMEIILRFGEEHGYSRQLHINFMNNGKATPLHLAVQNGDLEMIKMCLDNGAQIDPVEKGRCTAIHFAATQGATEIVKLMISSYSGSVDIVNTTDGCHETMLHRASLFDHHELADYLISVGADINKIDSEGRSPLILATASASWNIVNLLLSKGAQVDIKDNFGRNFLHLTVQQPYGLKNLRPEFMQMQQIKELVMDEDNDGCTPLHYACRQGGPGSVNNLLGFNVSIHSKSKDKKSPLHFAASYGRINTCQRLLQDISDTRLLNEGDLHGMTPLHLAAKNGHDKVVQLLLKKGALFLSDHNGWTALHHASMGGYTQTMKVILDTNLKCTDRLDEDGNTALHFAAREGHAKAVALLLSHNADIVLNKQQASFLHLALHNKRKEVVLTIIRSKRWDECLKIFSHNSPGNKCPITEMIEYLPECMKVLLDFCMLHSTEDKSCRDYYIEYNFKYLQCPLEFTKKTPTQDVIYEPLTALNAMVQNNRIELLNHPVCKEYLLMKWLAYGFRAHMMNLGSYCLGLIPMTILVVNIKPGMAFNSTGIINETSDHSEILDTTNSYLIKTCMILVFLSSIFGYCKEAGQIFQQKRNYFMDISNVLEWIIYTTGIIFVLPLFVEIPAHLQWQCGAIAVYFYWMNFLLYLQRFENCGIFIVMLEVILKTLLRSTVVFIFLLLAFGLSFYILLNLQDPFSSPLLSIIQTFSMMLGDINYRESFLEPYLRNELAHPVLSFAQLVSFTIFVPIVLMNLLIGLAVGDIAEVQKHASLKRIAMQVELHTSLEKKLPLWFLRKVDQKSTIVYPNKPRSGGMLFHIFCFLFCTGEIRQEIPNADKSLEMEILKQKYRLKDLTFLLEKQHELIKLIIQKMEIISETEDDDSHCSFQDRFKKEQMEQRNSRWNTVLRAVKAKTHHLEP
Measurement of Intracellular Calcium Increase
The 384 well plate was recovered, and the medium was removed. A calcium-bonded fluorescent indicator (manufactured by Molecular Device, trade name: Calcium4 Assay Kit, 38 μL) dissolved in assay buffer (1×HBSS, 20 mM HEPES, pH 7.2) was added, and the cells were stained in a CO2 incubator for 1 hr. The cells were taken out at room temperature, stood for not less than 15 min, a test substance (10 μL) was added by a platereader FDSS7000 (Hamamatsu Photonics K.K.) equipped with a 384ch dispenser. After 10 min, allylisothiocyanate (12 μL) was further added at a final concentration of 20 μM, and changes in the relative fluorescence intensity after addition of allylisothiocyanate were measured for 5 min.
Test Substance Preparation
The test substance was dissolved in dimethyl sulfoxide and serially diluted with an assay buffer containing 0.1% bovine serum albumin (1×HBSS, 20 mM HEPES, pH 7.2) to a 4.8-fold concentration of the evaluation concentration. Allylisothiocyanate, which is a known TRPA1 activator, was dissolved in dimethyl sulfoxide to 100 mM, and further diluted 5-fold (100 μM) of the final concentration, like the test substance.
Calculation of Antagonist Activity
Under the test substance-free conditions, the maximum variation range of the fluorescence intensity before and after allylisothiocyanate stimulation was defined to be 100% activity rate, and the variation range before and after buffer stimulation was defined as 0% activity rate. The activity rate on addition of the test substance was determined, and the numerical value obtained by subtracting the activity rate from 100 was defined to be an inhibitory rate. IC50, which is the concentration of the test substance necessary for reaching the 50% inhibitory rate, was calculated from the sigmoid approximate curve by a spreadsheet software Excel-Fit.
Measurement of TRPA1 Antagonist Activity (2)
By a method similar to that in Experimental Example 1-1 except that the lot of human […] expression plasmid is different, the TRPA1 antagonist activity of the test substance was measured.
Turning to `O=C(NCc1cc(-c2cnc(C(F)(F)F)nc2)ccn1)[C@@H]1CCN1S(=O)(=O)c1cc2cc(F)ccc2o1` [Example 389, (2S)-1-(5-fluorobenzofuran-2-yl)sulfonyl-N-[[4-[2-(trifluoromethyl)pyrimidin-5-yl]-2-pyridyl]methyl]azetidine-2-carboxamide], the IC50 – broadly, the point on the concentration scale where inhibition reaches its midpoint – was determined as 11 nM.

Regarding `O=C(CN(CC1CC1)S(=O)(=O)c1cc2cc(F)ccc2o1)NCc1cc(-c2ccc(C(F)(F)F)cn2)ccn1` [Example 349, 2-[cyclopropylmethyl-(5-fluorobenzofuran-2-yl)sulfonyl-amino]-N-[[4-[5-(trifluoromethyl)-2-pyridyl]-2-pyridyl]methyl]acetamide], the IC50 was found to be 43 nM.

For `O=C(CN(Cc1ccccn1)S(=O)(=O)c1cc2cc(F)ccc2o1)NCc1cc(-c2ccc(C(F)(F)F)cc2)ncn1` [Example 353, 2-[(5-fluorobenzofuran-2-yl)sulfonyl-(2-pyridylmethyl)-amino]-N-[[6-[4-(trifluoromethyl)-phenyl]pyrimidin-4-yl]methyl]acetamide], the IC50 amounted to 300 nM.

On to `CN(C)c1nc(CNC(=O)[C@@H]2CCCN2S(=O)(=O)c2cc3cc(F)ccc3o2)cc(-c2ccc(C(F)(F)F)cc2)n1` [Example 378, (2S)-N-[[2-(dimethylamino)-6-[4-(trifluoromethyl)phenyl]-pyrimidin-4-yl]methyl]-1-(5-fluorobenzofuran-2-yl)sulfonyl-pyrrolidine-2-carboxamide], for which the IC50 amounted to 5.2 nM.

Turning to `C[C@H](C(=O)NCc1cc(-c2ccc(C(F)(F)F)cn2)ccn1)N(C)S(=O)(=O)c1cc2cc(F)ccc2o1` [Example 342, (2R)-2-[(5-fluorobenzofuran-2-yl)sulfonyl-methyl-amino]-N-[[4-[5-(trifluoromethyl)-2-pyridyl]-2-pyridyl]methyl]propanamide], the 50% inhibitory concentration (IC50) turned out to be 180 nM.

For the molecule `O=C(NCc1cc(-c2ncc(C(F)(F)F)cn2)ccn1)[C@@H]1CCCN1S(=O)(=O)c1cc2cnccc2o1` [Example 365, (2S)-1-furo[3,2-c]pyridin-2-ylsulfonyl-N-[[4-[5-(trifluoromethyl)pyrimidin-2-yl]-2-pyridyl]methyl]pyrrolidine-2-carboxamide], the IC50 was determined as 220 nM.

Regarding `C[C@H](NS(=O)(=O)c1cc2cnccc2o1)C(=O)NCc1ccc(O)c(-c2ccc(C(F)(F)F)cn2)c1` [Example 373, (2S)-2-(furo[3,2-c]pyridin-2-ylsulfonylamino)-N-[[4-hydroxy-3-[5-(trifluoromethyl)-2-pyridyl]-phenyl]methyl]propanamide], the IC50 came to 79 nM.

For the molecule `O=C(NCc1cc(-c2ccc(C(F)(F)F)cc2O)ncn1)[C@@H]1CCN1S(=O)(=O)c1cc2cc(F)ccc2o1` [Example 412, (2S)-1-(5-fluorobenzofuran-2-yl)sulfonyl-N-[[6-[2-hydroxy-4-(trifluoromethyl)phenyl]pyrimidin-4-yl]methyl]azetidine-2-carboxamide], the IC50 came to 2.7 nM.

Turning to `CN(CC(=O)NCc1cc(-c2ccc(C(F)(F)F)cc2)ncn1)S(=O)(=O)c1cc2cc(F)ccc2o1` [Example 344, 2-[(5-fluorobenzofuran-2-yl)sulfonyl-methyl-amino]-N-[[6-[4-(trifluoromethyl)-phenyl]pyrimidin-4-yl]methyl]acetamide], the IC50 came to 3.3 nM.

Take `C#CCN([C@@H](C)C(=O)NCc1cc(-c2ccc(C(F)(F)F)cn2)ccn1)S(=O)(=O)c1cc2cc(F)ccc2o1` [Example 418, (2S)-2-[(5-fluorobenzofuran-2-yl)sulfonyl-prop-2-ynylamino]-N-[[4-[5-(trifluoromethyl)-2-pyridyl]-2-pyridyl]methyl]propanamide]: the IC50 was found to be 11 nM.

Turning to `C[C@@]1(C(=O)NCc2cc(-c3ccc(C(F)(F)F)cn3)ccn2)CCCN1S(=O)(=O)c1cc2cc(F)ccc2o1` [Example 341, (2S)-1-(5-fluorobenzofuran-2-yl)sulfonyl-2-methyl-N-[[4-[5-(trifluoromethyl)-2-pyridyl]-2-pyridyl]methyl]pyrrolidine-2-carboxamide], the IC50 was found to be 14 nM.
